Like-named read-outs stand apart in the source and are kept apart here.
Assays:
HFF = HFF host cell cytotoxicity, Alamar blue viability assay; type: cell-based, human; settings: 72 h, uninfected HFF
Protocol: (§1) To determine cytotoxicity of compounds on host cells, HFF were grown to confluency in 96 well plates and were treated with different concentrations of the drugs solubilized in medium during 72 h at 37 °C/5% CO2, or were treated with the corresponding concentration of DMSO only ([Desiatkina et al., 2020]; [Holzer et al., 2023]; [Păunescu et al., 2021]). The Alamar blue viability assay was used as previously described ([Desiatkina et al., 2020], [2021], [2022a], [2022b]; [Holzer et al., 2023]; [Păunescu et al., 2021]). In short, resazurin was added to each well at 0.01 mg/ml, and subsequently fluorescence of the produced resorufin was measured at excitation wavelength 544/20 nm and emission wavelength 590/20 nm using a Hidex Sense microplate reader (Hidex, Turku, Finland).

[1] = system: T. gondii β-gal tachyzoites; settings: 2021, cited from earlier work
[2] = system: T. gondii β-gal tachyzoites; assay: T. gondii β-Gal tachyzoite proliferation in HFF monolayers (β-galactosidase fluorometric assay); type: cell-based, Toxoplasma gondii
Protocol: Effects of drugs on the proliferative capacity of T. gondii tachyzoites were investigated using a transgenic T. gondii RH strain constitutively expressing β-Galactosidase (T. gondii β-Gal ([Dc et al., 1997]);). Assays were carried out in 96 well plates in the presence or absence of the different compounds. For the quantification of β-Galactosidase activity, a fluorometric assay was applied as previously described ([Desiatkina et al., 2021]; [Păunescu et al., 2021]).

T. gondii-infected HFF = assay: TMRE uptake assay (mitochondrial membrane potential), T. gondii-infected HFF; type: cell-based, Toxoplasma gondii Me49 in human HFF; settings: 0.5 μM, 3.5 h
Protocol: (§2) 5 × 10^5 HFF were seeded into T25 culture flasks in DMEM complete medium and maintained in culture for 72 h to reach ⁓80% confluency. HFF monolayers were left either non-infected or were infected with 2 × 10^5 T. gondii Me49 tachyzoites. After another 48 h, the medium was removed from infected and non-infected T25 flasks and was replaced either by medium containing 0.5 μM RU-SDX, or in the case of non-treated controls, medium containing 0.05% DMSO. As positive controls, the two mitochondrial uncouplers FCCP and CCCP were applied at a concentration of 80 and 50 μM, respectively. PYR was applied at 0.5 μM as a control drug not affecting the MMP, and RU-adenine, used as a conjugate shown earlier to impact on the mitochondrial ultrastructure in T. gondii ([Anghel et al., 2021]; [Desiatkina et al., 2022b]), was also tested at 0.5 μM ([Anghel et al., 2021]; [Desiatkina et al., 2022b]). […] Fluorescence was measured using a Hidex Sense microplate reader instrument ([…]) with the excitation wavelength 544/20 nm and emitted light collected at 590/20 nm. Value from wells belonging to the same experimental condition were summed and the mean TMRE uptake in each condition was calculated from three biological replicates.

Non-infected HFF = assay: TMRE uptake assay (mitochondrial membrane potential), non-infected HFF; type: cell-based, human; settings: 0.5 μM, 3.5 h
Protocol: as §2

[3] = HFF host cell cytotoxicity, Alamar blue viability assay; type: cell-based, human; settings: human, uninfected HFF cells (confluent monolayer), read-out: viability (% of control ± SD)
Protocol: as §1

**Q.** Which “viability (% of control ± SD)” value (HFF; 2.5 μM) does the source give for CC(C)(C)c1ccc(C[S-])cc1.CC(C)(C)c1ccc(C[S-])cc1.Cc1ccc(C(C)C)cc1.Cc1ccc(C(C)C)cc1.O=C(O)Cc1ccc([S-])cc1.[Cl-].[Ru+2].[Ru+2] [RU] here?
**A.** 100 ± 10%

**Q.** What about the “viability (% of control ± SD)” value (HFF; 5 μM) of the same molecule?
**A.** 70 ± 10%

**Q.** And the “viability (% of control ± SD)” value (HFF; 10 μM)?
**A.** 0 ± 0%

**Q.** And the “proliferation (% of control ± SD)” value ([1]; 1 μM, ref Păunescu et al.)?
**A.** ^a110 ± 2%

**Q.** What about the “proliferation (% of control ± SD)” value ([1]; 1.1 μM, ref Păunescu et al.) of the same molecule?
**A.** ^a114 ± 2%

**Q.** What about the “proliferation (% of control ± SD)” value ([2]; 1.25 μM) of the same molecule?
**A.** ^∗64 ± 10%

**Q.** What about the “proliferation (% of control ± SD)” value ([2]; 2.5 μM) of the same molecule?
**A.** ^∗∗∗12 ± 2%

**Q.** And the “proliferation (% of control ± SD)” value ([2]; 5 μM)?
**A.** ^∗∗∗0 ± 0%

**Q.** For CCc1nc(N)nc(N)c1-c1ccc(Cl)cc1 [PYR, Pyrimethamine, reference compound], which “TMRE fluorescence intensity / TMRE uptake (percentage of non-treated control = 100%)” value (T. gondii-infected HFF) is on record?
**A.** 106%

**Q.** What about the “TMRE fluorescence intensity / TMRE uptake (percentage of non-treated control = 100%)” value (Non-infected HFF) of the same molecule?
**A.** 99%

**Q.** Which viability at 72 h, 2.5 µM ([3]; 2.5 μM) does the source give for COc1ncnc(NS(=O)(=O)c2ccc(N)cc2)c1OC [SDX, Sulfadoxine] here?
**A.** 118 ± 6%

**Q.** And the viability at 72 h, 5 µM ([3]; 5 μM)?
**A.** 106 ± 9%

**Q.** And the viability at 72 h, 10 µM ([3]; 10 μM)?
**A.** 93 ± 5%

**Q.** And the “proliferation (% of control ± SD)” value ([1]; 1 μM, ref Desiatkina et al.)?
**A.** ^b83 ± 2%

**Q.** And the “proliferation (% of control ± SD)” value ([1]; 1.1 μM, ref Desiatkina et al.)?
**A.** ^b^, ^∗111 ± 3%

**Q.** And the activity at 1.25 µM ([2]; Toxoplasma gondii, 1.25 μM, read-out: proliferation (% of control ± SD))?
**A.** 127%

**Q.** What about the activity at 2.5 µM ([2]; Toxoplasma gondii, 2.5 μM, read-out: proliferation (% of control ± SD)) of the same molecule?
**A.** 113%

**Q.** What about the activity at 5 µM ([2]; Toxoplasma gondii, 5 μM, read-out: proliferation (% of control ± SD)) of the same molecule?
**A.** 112%

From PMC11087982, “In vitro and in vivo activities of a trithiolato-diRuthenium complex conjugated with sulfadoxine against the apicomplexan parasite Toxoplasma gondii” (International Journal for Parasitology: Drugs and Drug …, 2024)
